The experiment concerns P388. As to the kind of experiment: Cytotoxicity against mouse P388 cells. Format: functional, cell-based.

The term IC50 denotes the midpoint of a concentration-inhibition curve. A higher IC50 goes with a need for much substance. Take `Cn1c(-c2cn(C)c3cc(Br)ccc23)cnc1-c1cn(C)c2ccccc12`: the IC50 was found to be 800 nM.

The values above are taken from ChEMBL document CHEMBL1165947, “Synthesis and antitumor activity of 2,5-bis(3'-indolyl)-furans and 3,5-bis(3'-indolyl)-isoxazoles, nortopsentin analogues” (Bioorg Med Chem, 2010).
